In patent US20220073536A1 (Rigel Pharmaceuticals, Inc., priority 2003, published 2022):
Where a name gives a salt, the structure may show the parent alone. Read-outs that look alike come from different tables or passages of the source.

Tested on: cultured human mast cells (CHMC)
Test: CHMC low cell density IgE activation: tryptase assay
Assay type: cell-based
Conditions: IgE activation
Procedure, shortened: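 Tryptase release, fluorogenic substrate, 30 min RT. Prior anti-IgE stimulation of CHMC, 30 min, 37 °C, after 1 hr preincubation at 1000–1500 cells/well in MT; unstimulated wells received MT.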

[1] = Homo sapiens, Mast cell, low cell density, 8 pt, read-out: LD Tryptase, CHMC, IgE, 8 pt
[2] = Homo sapiens, Mast cell, low cell density, 3 pt, read-out: LD Tryptase, CHMC, IgE, 3 pt
[3] = low cell density CHMC, tryptase release, 3 point, read-out: LD Tryptase, CHMC, IgE, 3 pt
[4] = low cell density CHMC, tryptase release, 8 point, read-out: LD Tryptase, CHMC, IgE, 8 pt
[5] = Homo sapiens, Mast cell, low cell density CHMC, tryptase, 3 pt, read-out: LD Tryptase, CHMC, IgE, 3 pt
[6] = low cell density CHMC, tryptase, 3 pt, read-out: LD Tryptase, CHMC, IgE, 3 pt
[7] = low cell density CHMC, tryptase, 8 pt, read-out: LD Tryptase, CHMC, IgE, 8 pt

Q: For `CC1(C)Oc2ccc(Nc3nc(Nc4ccc5nc(C(F)(F)F)[nH]c5c4)ncc3F)cc2NC1=O` [Compound 539, N4-(2,2-Dimethyl-3-oxo-4H-benz[1,4]oxazin-6-yl)-5-fluoro-N2-(2-trifluoromethyl-3H-benzimidazol-5-yl)-2,4-pyrimidinediamine p-Toluenesulfonic Acid Salt], which IC50 [1] is on record?
A: The IC50 was less than 10 µM.

Q: For `COc1cc(Nc2ncc(F)c(Nc3ccc4c(c3)NC(=O)C(C)(C)O4)n2)cc(OC)c1OC` [Compound 543], which IC50 [2] is on record?
A: Its IC50 is less than 10 µM.

Q: What about the IC50 [1] of the same compound?
A: Its IC50 is less than 10 µM.

Q: With `COc1cc(Nc2ncc(F)c(Nc3ccc(OC)c(N)n3)n2)cc(OC)c1` [Compound 544] as the compound, how does the IC50 [2] read?
A: The IC50 was less than 10 µM.

Q: `COc1ccc(Nc2nc(Nc3cc(OC)c(OC)c(OC)c3)ncc2F)nc1N` [Compound 545] was tested. Which IC50 [2] did it give?
A: Its IC50 is less than 10 µM.

Q: Which IC50 [2] does the source give for `COC(=O)c1cc2cc(Nc3ncc(F)c(Nc4ccc(OC)c(N)n4)n3)ccc2o1` [Compound 546] here?
A: The IC50 was less than 10 µM.

Q: For `CNC(=O)COc1cccc(Nc2ncc(F)c(Nc3ccc(OC)c(N)n3)n2)c1` [Compound 547, N4-(2-Amino-3-methoxypyrid-6-yl)-5-fluoro-N2[3-(N-methylaminocarbonylmethyleneoxy)phenyl]-2,4-pyrimidinediamine], which IC50 (low cell density, 3 pt, read-out: LD Tryptase, CHMC, IgE, 3 pt) is on record?
A: The IC50 was less than 10 µM.

Q: With `COc1c(Cl)cc(Nc2nc(Nc3cc(Cl)c(O)c(Cl)c3)ncc2F)cc1Cl` [Compound 548] as the compound, how does the IC50 [2] read?
A: The IC50 was less than 10 µM.

Q: And the IC50 [1]?
A: The IC50 was less than 10 µM.

Q: Which IC50 [1] does the source give for `COc1cc(Nc2ncc(F)c(Nc3cc(C)cc(C)c3)n2)cc(OC)c1OC` [Compound 553] here?
A: The IC50 was less than 10 µM.

Q: How did the IC50 [1] turn out when `Cc1cc(C)cc(Nc2nc(Nc3cc(C)c(O)c(Cl)c3)ncc2F)c1` [Compound 554] was run?
A: The IC50 was less than 10 µM.

Q: Which IC50 [2] does the source give for `Cc1cc(C)cc(Nc2nc(Nc3cc(Cl)cc(Cl)c3)ncc2F)c1` [Compound 556] here?
A: The IC50 was less than 10 µM.

Q: And the IC50 [1]?
A: Its IC50 is less than 10 µM.

Q: How did the IC50 [1] turn out when `CNC(=O)c1cc2cccc(Nc3ncc(F)c(Nc4cc(C)cc(C)c4)n3)c2[nH]1` [Compound 557, N4-(3,5-Dimethylphenyl)-5-fluoro-N2-[2-(N-methylamino)carbonylindol-7-yl]-2,4-pyrimidinediamine] was run?
A: The IC50 was greater than 10 µM.

Q: Which IC50 [2] does the source give for `CNC(=O)c1cc2cccc(Nc3ncc(F)c(Nc4cc(OC)cc(C(F)(F)F)c4)n3)c2[nH]1` [Compound 558, 5-Fluoro-N4-(3-methoxy-5-trifluoromethylphenyl)-N2-[2-(N-methylamino)carbonylindol-7-yl]-2,4-pyrimidinediamine] here?
A: Its IC50 is less than 10 µM.

Q: How did the IC50 [2] turn out when `Cc1cc(C)cc(Nc2nc(Nc3cc(Cl)c(O)c(Cl)c3)ncc2F)c1` [Compound 559] was run?
A: The IC50 was less than 10 µM.

Q: And the IC50 [1]?
A: The IC50 was less than 10 µM.

Q: `Cc1cc(C)cc(Nc2nc(Nc3cc(C)c(Cl)c(C)c3)ncc2F)c1` [Compound 560] was tested. Which IC50 [2] did it give?
A: The IC50 was greater than 10 µM.

Q: `Oc1c(Cl)cc(Nc2ncc(F)c(Nc3ccc4c(c3)OC(F)(F)O4)n2)cc1Cl` [Compound 564] was tested. Which IC50 (low cell density, 8 pt, read-out: LD Tryptase, CHMC, IgE, 8 pt) did it give?
A: The IC50 was less than 10 µM.

Q: `Fc1cnc(Nc2cc(Cl)cc(Cl)c2)nc1Nc1ccc2c(c1)OC(F)(F)O2` [Compound 565] was tested. Which IC50 [3] did it give?
A: The IC50 was less than 10 µM.

Q: For `Cc1cc(Nc2ncc(F)c(Nc3ccc4c(c3)OC(F)(F)O4)n2)cc(C)c1Cl` [Compound 566], which IC50 [3] is on record?
A: Its IC50 is greater than 10 µM.

Q: With `COc1cc(Nc2ncc(F)c(Nc3ccc4c(c3)OC(F)(F)O4)n2)cc(C(F)(F)F)c1` [Compound 568] as the compound, how does the IC50 [3] read?
A: Its IC50 is greater than 10 µM.

Q: `Cc1cc(Nc2ncc(F)c(Nc3ccc4c(c3)OC(F)(F)O4)n2)cc(C(F)(F)F)c1` [Compound 569] was tested. Which IC50 [3] did it give?
A: The IC50 was less than 10 µM.

Q: How did the IC50 [3] turn out when `CNC(=O)COc1c(C)cc(Nc2ncc(F)c(Nc3ccc(OC)c(Cl)c3)n2)cc1C` [Compound 571, N4-(3-Chloro-4-methoxyphenyl)-N2-[3,5-dimethyl-4-(N-methylamino)carbonylmethyleneoxyphenyl]-5-fluoro-2,4-pyrimidinediamine] was run?
A: The IC50 was less than 10 µM.

Q: What about the IC50 [4] of the same compound?
A: The IC50 was less than 10 µM.

Q: What does the source list for `CNC(=O)COc1c(C)cc(Nc2ncc(F)c(Nc3ccc4c(c3)OCCO4)n2)cc1C` [Compound 572, N2-[3,5-dimethyl-4-(N-methylamino)carbonylmethyleneoxyphenyl]-N4-(3,4-ethylenedioxyphenyl)-5-fluoro-2,4-pyrimidinediamine]?
A: IC50 [3]: < 10 µM; IC50 [4]: < 10 µM

Q: How did the IC50 [3] turn out when `CNC(=O)COc1c(C)cc(Nc2ncc(F)c(Nc3cc(OC)cc(OC)c3)n2)cc1C` [Compound 573, N4-(3,5-Dimethoxyphenyl)-N2-[3,5-dimethyl-4-(N-methylamino)carbonylmethyleneoxyphenyl]-5-fluoro-2,4-pyrimidinediamine] was run?
A: The IC50 was less than 10 µM.

Q: And the IC50 [4]?
A: The IC50 was less than 10 µM.

Q: `CNC(=O)COc1c(C)cc(Nc2ncc(F)c(Nc3ccc4c(c3)NC(=O)C(C)(C)O4)n2)cc1C` [Compound 574, N2-[3,5-dimethyl-4-(N-methylamino)carbonylmethyleneoxyphenyl]-N4-(2,2-dimethyl-3-oxo-4H-benz[1,4]oxazin-6-yl)-5-fluoro-2,4-pyrimidinediamine] was tested. Which IC50 [3] did it give?
A: The IC50 was less than 10 µM.

Q: And the IC50 [4]?
A: The IC50 was less than 10 µM.

Q: What does the source list for `CNC(=O)COc1c(C)cc(Nc2ncc(F)c(Nc3ccc4c(c3)OCO4)n2)cc1C` [Compound 575, N2-[3,5-dimethyl-4-(N-methylamino)carbonylmethyleneoxyphenyl]-5-fluoro-N4-(3,4-methylenedioxyphenyl)-2,4-pyrimidinediamine]?
A: IC50 [3]: < 10 µM; IC50 [4]: < 10 µM

Q: `CNC(=O)Cn1ccc2cc(Nc3ncc(F)c(Nc4ccc(OCCO)nc4)n3)ccc21` [Compound 650, 5-Fluoro-N4-[2-(2-hydroxyethyleneoxy)pyrid-5-yl]-N2-[1-(N-methylamino)carbonylmethyleneindol-5-yl]-2,4-pyrimidinediamine] was tested. Which IC50 [4] did it give?
A: Its IC50 is less than 10 µM.

Q: How did the IC50 [4] turn out when `CNC(=O)Cn1ccc2cc(Nc3ncc(F)c(Nc4ccc(OC(F)(F)F)c(Cl)c4)n3)ccc21` [Compound 651, N4-(3-Chloro-4-trifluoromethoxyphenyl)-5-fluoro-N2-[1-(N-methylamino)carbonylmethyleneindol-5-yl]-2,4-pyrimidinediamine] was run?
A: The IC50 was less than 10 µM.

Q: Which IC50 [4] does the source give for `CNC(=O)Cn1ccc2cc(Nc3ncc(F)c(Nc4ccc(Cl)c(OC)c4)n3)ccc21` [Compound 653, N4-(4-Chloro-3-methoxyphenyl)-5-fluoro-N2-[1-(N-methylamino)carbonylmethyleneindol-5-yl]-2,4-pyrimidinediamine] here?
A: Its IC50 is less than 10 µM.

Q: How did the IC50 [4] turn out when `CNC(=O)Cn1ccc2cc(Nc3ncc(F)c(Nc4ccc(OC)c(Cl)c4)n3)ccc21` [Compound 654, N4-(3-Chloro-4-methoxyphenyl)-5-fluoro-N2-[1-(N-methylamino)carbonylmethyleneindol-5-yl]-2,4-pyrimidinediamine] was run?
A: The IC50 was less than 10 µM.

Q: With `CNC(=O)Cn1ccc2cc(Nc3ncc(F)c(Nc4ccc5c(c4)OCCO5)n3)ccc21` [Compound 655, N4-(3,4-Ethylenedioxyphenyl)-5-fluoro-N2-[1-(N-methylamino)carbonylmethyleneindol-5-yl]-2,4-pyrimidinediamine] as the compound, how does the IC50 [4] read?
A: Its IC50 is less than 10 µM.

Q: How did the IC50 [4] turn out when `CNC(=O)Cn1ccc2cc(Nc3ncc(F)c(Nc4ccc(C(=O)NC)c(Cl)c4)n3)ccc21` [Compound 656, N4-[3-Chloro-4-(N-methylamino)carbonylphenyl]-5-fluoro-N2-[1-(N-methylamino)carbonylmethyleneindol-5-yl]-2,4-pyrimidinediamine] was run?
A: The IC50 was less than 10 µM.

Q: For `COc1cc(Nc2nc(Nc3cccc(-c4ncco4)c3)ncc2F)cc(OC)c1OC` [Compound 667], which IC50 (Homo sapiens, Mast cell, low cell density CHMC, tryptase release, 3 point, read-out: LD Tryptase, CHMC, IgE, 3 pt) is on record?
A: Its IC50 is less than 10 µM.

Q: With `COc1ccc(Nc2ncc(F)c(Nc3ccc4c(c3)OCCO4)n2)c(OC)c1OC` [Compound 668, N4-(3,4-Ethylenedioxyphenyl)-5-fluoro-N2-(2,3,4-trimethoxyphenyl)-2,4-pyrimidinediamine] as the compound, how does the IC50 [5] read?
A: The IC50 was less than 10 µM.

Q: `COc1ccc(Nc2nc(Nc3ccc(OC)c(OC)c3OC)ncc2F)cc1Cl` [Compound 669, N4-(3-Chloro-4-methoxyphenyl)-5-fluoro-N2-(2,3,4-trimethoxyphenyl)-2,4-pyrimidinediamine] was tested. Which IC50 [5] did it give?
A: Its IC50 is greater than 10 µM.

Q: How did the IC50 [5] turn out when `COc1cc(Nc2nc(Nc3ccc(OC)c(OC)c3OC)ncc2F)ccc1Cl` [Compound 670] was run?
A: Its IC50 is greater than 10 µM.

Q: With `COc1ccc(Nc2ncc(F)c(Nc3ccc(OC(F)(F)F)c(Cl)c3)n2)c(OC)c1OC` [Compound 671] as the compound, how does the IC50 [5] read?
A: The IC50 was less than 10 µM.

Q: With `COc1ccc(Nc2ncc(F)c(Nc3ccc4c(c3)NC(=O)C(C)(C)O4)n2)c(OC)c1OC` [Compound 672] as the compound, how does the IC50 [5] read?
A: Its IC50 is less than 10 µM.

Q: What does the source list for `COc1cc(Nc2ncc(F)c(Nc3ccc4c(n3)NC(=O)C(C)(C)O4)n2)cc(OC)c1OC.O=S(=O)(O)c1ccc(O)cc1` [Compound 676, N4-(2,2-Dimethyl-3-oxo-4H-5-pyrid[1,4]oxazin-6-yl)-5-fluoro-N2-(3,4,5-trimethoxyphenyl)-2,4-pyrimidinediamine 4-Hydroxybenzenesulfonic Acid Salt]?
A: IC50 [6]: < 10 µM; IC50 [7]: < 10 µM

Q: What does the source list for `COc1cc(Nc2ncc(F)c(Nc3ccc4c(n3)NC(=O)C(C)(C)O4)n2)cc(OC)c1OC.O=S(=O)(O)c1cccnc1` [Compound 678, N4-(2,2-Dimethyl-3-oxo-4H-5-pyrid[1,4]oxazin-6-yl)-5-fluoro-N2-(3,4,5-trimethoxyphenyl)-2,4-pyrimidinediamine 0.5 Pyridine-3-sulfonic Acid Salt]?
A: IC50 [6]: < 10 µM; IC50 [7]: < 10 µM

Q: What does the source list for `CCc1ccc(S(=O)(=O)O)cc1.COc1cc(Nc2ncc(F)c(Nc3ccc4c(n3)NC(=O)C(C)(C)O4)n2)cc(OC)c1OC` [Compound 679, N4-(2,2-Dimethyl-3-oxo-4H-5-pyrid[1,4]oxazin-6-yl)-5-fluoro-N2-(3,4,5-trimethoxyphenyl)-2,4-pyrimidinediamine p-Ethylbenzenesulfonic Acid Salt]?
A: IC50 [6]: < 10 µM; IC50 [7]: < 10 µM
